Data taken from US6623933B1 (priority 1999, dated 2003).
Like-named read-outs stand apart in the source and are kept apart here.

How the values were obtained:
[1] = test system: primary cultures of rat hippocampal neurons; test: NMDA-induced neuronal death, trypan blue exclusion; type: cell-based; settings: DNQX; 100 μM SR-95531; not shown
Protocol: Principally neuronal cultures were prepared from hippocampal tissue of fetal Sprague-Dawley rats on day 18 of embryonic development, as previously described (Brewer et al., Brain Research 494: 65-74 (1989)). Briefly, hippocampal cells were dissociated by trituration in Ca^2+/Mg^2+-free Hank's basic salt solution (Gibco) supplemented with 4.2 mM bicarbonate, 1 mM sodium pyruvate, 20 mM HEPES, 3 mg/ml bovine serum albumin (BSA). Dissociated cells were then pelleted by centrifugation (500×g, 4 min). […] Cells were then plated onto poly-L-lysine-coated 24-well culture dishes (Nunclon) at a density of 15,000 cell/cm^2 and maintained in a humidified atmosphere containing 5% CO2/95% air at 37° C. After 48 h, nonneuronal cell division was inhibited by a 48 h exposure to 1 μM cytosine arabinoside. Cultures were subsequently maintained in serum-free DMEM plus defined components and were used for experiments 16 to 24 days after plating.
Steroids were dissolved in DMSO (0.5% final concentration), and all treatment media contained 0.5% DMSO. […] Following exposure, cultures were washed 3 times with medium from sister cultures (conditioned medium). After the final wash, steroid or vehicle was reintroduced. Drugs were added to cultures in 25 μl of conditioned medium to yield a final volume of 0.25 ml per well. Except where otherwise noted, final steroid concentration was 100 μM.
The ability of neurons to exclude trypan blue was used to quantitate cell viability (Dawson et al., Proc Natl Acad Sci USA 88: 6368-6371 (1991)). […] Cultures were then fixed with 4% paraformaldehyde in PBS for 30 min, at whichtime the fixative was replaced with PBS. The number of stained and unstained neurons were counted in 4 high-power fields per culture well, using an inverted phase contrast microscope under both bright field and phase contrast settings. Experiments were performed in triplicate, and all assessments were made with the experimenter blind to the treatment of each culture well. Percent cell death is expressed as follows: (number of trypan blue stained neurons)/(total number of neurons)×100%.
All data are expressed as mean±standard error of the mean. Statistical significance was evaluated using 95% confidence limits unless otherwise noted.

GluR3 AMPA receptor = biological target: T1, GluR3 AMPA receptor (Rattus norvegicus, UniProt P19492); test: Kainate-induced currents, Xenopus oocytes injected with GluR3 cRNA; type: cell-based; settings: GluR3, steroid 100 μM; for Percentage change in kainate response: 100 μM kainate, −100 mV
T1 construct: expressed in transfected cells; host or cells: Xenopus oocytes injected with GluR3 cRNA
Excerpt: (§1) Plasmids were obtained from the following individuals: Dr. Suzanne Zukin (Albert Einstein College of Medicine, Bronx, N.Y.), NR1100; Dr. Shigetada Nakanishi (Kyoto University Faculty of Medicine, Kyoto, Japan), NR2A; Dr. Stephen Heinemann (Salk Institute, San Diego, Calif.), GluR1 (flop), GluR3 (flop), and GluR6. Plasmids were linearized with BamH1 (NR1100), XhoI (NR2A, GluR1, GluR3) or XbaI (GluR6) prior to in vitro transcription with T3 (GluR1, GluR3, GluR6) or T7 (NR1100, NR2A) RNA polymerase using the Message Machine kit (Ambion, Austin, Tex.). […] RNA solutions (50-70 nl) were injected into oocytes for delivery of NR1100 (5 ng), NR1100:NR2A (1:10 ng), GluR1 (5 ng). GluR3 (5 ng), or GluR6 (20 ng). Oocytes were incubated in ND96 at 18-20° C. for 3-7 days prior to electrophysiological recording.
(§2) Steroid solutions were prepared as 70-100 mM frozen stocks in dimethyl sulfoxide (DMSO). The final DMSO concentration of all recording solutions was between 0.1% to 0.5% and was constant within an experiment.
(§3) Perfusion control and data acquisition were carried out using an automated oocyte electrophysiology workstation that was developed for the rapid collection of concentration-response data and real-time waveform analysis (Yaghoubi et al., Soc. Neurosci. Abstr. 20: 1109 (1995)). This system is implemented on a Macintosh IIci computer (Apple Computer, Cupertino, Calif.) equipped with MacA-DIOS II data acquisition and control hardware (GW Instruments, Somerville, Mass.). Drug application is controlled by the computer through a series of valves, using custom-written software based on the SuperScope II development environment, improving the efficiency and reproducibility of data collection. Experiments were carried out using an Axoclamp-2A voltage clamp amplifier (Axon Instruments, Foster City, Calif.) in two-electrode voltage clamp mode. Intracellular microelectrodes (1-3 MΩ) were filled with 3 M KCl. […] Membrane potential was clamped at −60 to −70 mV and stepped to −100 mV at the start of data acquisition unless otherwise stated. […] Current and voltage recordings were digitized at 100 Hz for analysis. GluR6 injected oocytes were treated for 10 min with 10 μg/ml concanavalin A to prevent fast desensitization.
(§4) Results are expressed as mean±S.E.M. Statistical comparisons were made using Student's t-test.

GluR1 AMPA receptor = biological target: T2, GluR1 AMPA receptor (Rattus norvegicus, UniProt P19490); test: Kainate-induced currents, Xenopus oocytes injected with GluR1 cRNA; type: cell-based; settings: GluR1, steroid 100 μM; for Percentage change in kainate response: 100 μM kainate, −100 mV
T2 construct: expressed in transfected cells; host or cells: Xenopus oocytes injected with GluR1 cRNA
Excerpt: as §1, §2, §3, §4

[2] = biological target: T3, NR1100+NR2A NMDA receptor (Rattus norvegicus, UniProt P35439+Q00959); test: NMDA-induced currents, Xenopus oocytes, Example 1; type: cell-based; settings: NR1100 + NR2A; steroid 100 μM; 100 μM NMDA; −100 mV
T3 construct: expressed in transfected cells; host or cells: Xenopus oocytes co-injected with NR1100 and NR2A cRNA
Excerpt: as §1, §2, §3, §4

GluR6 kainate receptor = biological target: T4, GluR6 kainate receptor (Rattus norvegicus, UniProt P42260); test: Kainate-induced currents, Xenopus oocytes injected with GluR6 cRNA; type: cell-based; settings: GluR6, steroid 100 μM; for Percentage change in kainate response: 10 μM kainate, −100 mV
T4 construct: expressed in transfected cells; host or cells: Xenopus oocytes injected with GluR6 cRNA (concanavalin A treated)
Excerpt: as §1, §2, §3, §4

NR1/NR2B (NR1100) = NR1/NR2B (NR1100) (Rattus norvegicus, UniProt P35439+Q00960)
Excerpt: (§5) Plasmids containing the NR1100 (NR1G) and NR2A cDNA inserts were kindly provided by Dr. Nakanishi (Kyoto University Faculty of Medicine, Kyoto, Japan). Plasmids containing the NR2B, NR2C and NR2D cDNA inserts were kindly provided by Dr. P. Seeburg (Heidelberg University, Heidelberg, Germany). Plasmids were linearized with appropriate restriction enzyme prior to in vitro transcription using the Message Machine kit (Ambion, Inc., Austin, Tex.).
(§6) Female, oocyte-positive Xenopus laevis frogs were purchased from Xenopus I (Dexter, Mich.). […] Oocytes were injected with 50 nL of RNA solutions using an electronic microinjector (Drummond Inc., Broomall, Pa.). […] The injected oocytes were used for experiments following 1-5 days of incubation in Barth's solution at 18-20° C.
(§7) The microelectrodes were fabricated from borosilicate glass capillaries with a programmed puller (Sutter Instrument Co., Calif.). Microelectrode resistance was 1-3 MΩ_when filled with 3 M KCl.
(§8) Except where otherwise stated, oocytes were clamped at a holding potential of −70 mV during data acquisition. The membrane current was filtered at 500 Hz and sampled at 100 Hz. Drugs were applied using a gravity-driven external perfusion system. The working volume of the recording chamber was 30 μl and the rate of the perfusion was 50 μl/sec. The drug application lasted 10 sec and was followed by 60 s wash. Data acquisition and external perfusion were controlled using custom-written software implemented in the SuperScope II development environment (GW Instruments, Mass.). All experiments were performed at room temperature of 22-24° C. Peak or steady-state current measurements were normalized and expressed as a fraction of the peak or steady-state control current measurements, which were performed before and after application of every single concentration of agonists or steroids.
(§9) Concentration-response data were analyzed by nonlinear regress ion using the logistic equation Response=Emax/(1+(EC50/c)^nH), where c is concentration, Emaxis the maximum response, nHis the Hill coefficient. The data are presented as mean±SEM. EC50values are averaged as logarithms (De Lean et al., Am. J. Physiol. 235: E97-E102 (1978))±the SEM of the log EC50. […] The pooled data were simultaneously fitted to the logistic equation, either with Emax and EC50 constrained to be identical in the presence and absence of PS, or allowing one or both to vary independently. […] This was regarded as indicating a significant treatment effect of PS, but the change in EC50and Emaxwas not considered significant. […] No attempt was made to test the generally small changes in nHfor statistical significance.

NR1101/NR2A = NR1101/NR2A (Rattus norvegicus, UniProt P35439+Q00959); set-up: agonist Emax: dose or concentration left out as unconfirmed; settings: NR1101/NR2A
NR1/NR2A (NR1100) = NR1/NR2A (NR1100) (Rattus norvegicus, UniProt P35439+Q00959)
NR1011/NR2A = NR1011/NR2A (Rattus norvegicus, UniProt P35439+Q00959); set-up: agonist Emax: dose or concentration left out as unconfirmed; settings: NR1011/NR2A
NR1000/NR2A = NR1000/NR2A (Rattus norvegicus, UniProt P35439+Q00959); set-up: agonist Emax: dose or concentration left out as unconfirmed; settings: NR1000/NR2A
NR1010/NR2A = NR1010/NR2A (Rattus norvegicus, UniProt P35439+Q00959); set-up: agonist nHill / agonist Emax: dose or concentration left out as unconfirmed; settings: NR1010/NR2A
NR1/NR2C (NR1100) = NR1/NR2C (NR1100) (Rattus norvegicus, UniProt P35439+Q00961); settings: NR1/NR2C; for EC50: read-out: agonist EC50
Excerpt: as §5, §6, §7, §8, §9

NR1001/NR2A = NR1001/NR2A (Rattus norvegicus, UniProt P35439+Q00959); set-up: agonist Emax: dose or concentration left out as unconfirmed; settings: NR1001/NR2A
NR1100/NR2A = NR1100/NR2A (Rattus norvegicus, UniProt P35439+Q00959); set-up: agonist nHill / agonist Emax: dose or concentration left out as unconfirmed; settings: NR1100/NR2A
NR1111/NR2A = NR1111/NR2A (Rattus norvegicus, UniProt P35439+Q00959); set-up: agonist Emax: dose or concentration left out as unconfirmed; settings: NR1111/NR2A
NR1/NR2D (NR1100) = NR1/NR2D (NR1100) (Rattus norvegicus, UniProt P35439+Q62645)
NR1/NR2D (NR1100), sequence (Q62645 28-1323, other chains not shown): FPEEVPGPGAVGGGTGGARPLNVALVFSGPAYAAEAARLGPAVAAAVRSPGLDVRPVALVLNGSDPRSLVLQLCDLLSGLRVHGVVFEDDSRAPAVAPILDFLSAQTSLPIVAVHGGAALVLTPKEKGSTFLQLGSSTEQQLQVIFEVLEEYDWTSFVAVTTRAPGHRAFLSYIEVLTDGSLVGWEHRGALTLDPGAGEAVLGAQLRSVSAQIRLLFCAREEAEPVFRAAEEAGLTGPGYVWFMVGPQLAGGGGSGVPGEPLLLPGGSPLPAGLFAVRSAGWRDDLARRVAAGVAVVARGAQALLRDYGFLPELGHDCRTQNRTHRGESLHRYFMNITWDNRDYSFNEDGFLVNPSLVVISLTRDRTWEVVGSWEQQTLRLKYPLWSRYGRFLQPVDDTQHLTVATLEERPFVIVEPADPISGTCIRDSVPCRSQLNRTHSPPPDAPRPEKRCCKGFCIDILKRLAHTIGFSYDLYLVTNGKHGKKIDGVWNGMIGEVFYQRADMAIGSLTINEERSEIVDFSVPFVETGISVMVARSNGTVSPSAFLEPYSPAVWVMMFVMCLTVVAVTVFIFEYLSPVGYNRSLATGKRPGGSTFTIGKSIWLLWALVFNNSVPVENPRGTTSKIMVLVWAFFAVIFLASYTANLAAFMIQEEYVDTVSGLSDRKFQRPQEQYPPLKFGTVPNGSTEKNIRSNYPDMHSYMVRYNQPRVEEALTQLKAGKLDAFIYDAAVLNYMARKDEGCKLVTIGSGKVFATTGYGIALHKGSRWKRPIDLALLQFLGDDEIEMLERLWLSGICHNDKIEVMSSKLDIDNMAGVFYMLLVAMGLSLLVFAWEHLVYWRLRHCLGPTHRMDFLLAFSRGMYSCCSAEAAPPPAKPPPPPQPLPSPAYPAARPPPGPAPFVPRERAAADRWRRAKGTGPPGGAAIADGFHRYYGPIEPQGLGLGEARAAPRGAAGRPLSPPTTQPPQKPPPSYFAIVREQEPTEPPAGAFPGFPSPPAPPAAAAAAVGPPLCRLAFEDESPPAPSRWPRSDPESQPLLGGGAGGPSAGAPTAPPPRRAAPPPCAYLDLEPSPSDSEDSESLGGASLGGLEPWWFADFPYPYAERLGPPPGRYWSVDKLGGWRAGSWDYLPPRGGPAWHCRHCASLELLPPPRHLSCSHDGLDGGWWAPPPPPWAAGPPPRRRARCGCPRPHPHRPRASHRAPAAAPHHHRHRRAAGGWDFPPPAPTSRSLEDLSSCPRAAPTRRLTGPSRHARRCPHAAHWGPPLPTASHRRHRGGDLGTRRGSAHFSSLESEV
Excerpt: as §5, §6, §7, §8, §9

T1 sequence (P19492 23-888): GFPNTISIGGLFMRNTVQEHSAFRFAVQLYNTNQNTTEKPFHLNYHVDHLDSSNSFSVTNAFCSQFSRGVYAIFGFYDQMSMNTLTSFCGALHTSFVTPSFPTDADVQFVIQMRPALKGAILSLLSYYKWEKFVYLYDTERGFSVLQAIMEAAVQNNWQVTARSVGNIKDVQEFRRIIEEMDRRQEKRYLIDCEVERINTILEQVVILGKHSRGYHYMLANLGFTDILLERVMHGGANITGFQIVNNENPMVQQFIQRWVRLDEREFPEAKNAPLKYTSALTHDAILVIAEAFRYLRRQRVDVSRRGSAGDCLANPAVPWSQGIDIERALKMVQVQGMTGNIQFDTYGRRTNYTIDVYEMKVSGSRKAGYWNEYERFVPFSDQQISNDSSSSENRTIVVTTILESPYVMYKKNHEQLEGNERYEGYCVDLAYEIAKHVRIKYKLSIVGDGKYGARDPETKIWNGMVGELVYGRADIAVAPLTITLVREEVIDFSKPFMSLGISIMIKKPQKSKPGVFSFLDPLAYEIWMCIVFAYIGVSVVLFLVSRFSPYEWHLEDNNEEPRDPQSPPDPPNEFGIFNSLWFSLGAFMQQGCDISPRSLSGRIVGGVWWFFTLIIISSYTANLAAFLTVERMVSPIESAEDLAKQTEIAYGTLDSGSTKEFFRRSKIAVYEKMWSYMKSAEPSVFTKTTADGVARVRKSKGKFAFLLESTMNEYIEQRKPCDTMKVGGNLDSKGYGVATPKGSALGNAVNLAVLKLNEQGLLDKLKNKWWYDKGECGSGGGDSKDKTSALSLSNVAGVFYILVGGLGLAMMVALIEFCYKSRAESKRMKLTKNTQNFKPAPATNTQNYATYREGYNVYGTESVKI
NR1/NR2B (NR1100), sequence (Q00960 27-1482, other chains not shown): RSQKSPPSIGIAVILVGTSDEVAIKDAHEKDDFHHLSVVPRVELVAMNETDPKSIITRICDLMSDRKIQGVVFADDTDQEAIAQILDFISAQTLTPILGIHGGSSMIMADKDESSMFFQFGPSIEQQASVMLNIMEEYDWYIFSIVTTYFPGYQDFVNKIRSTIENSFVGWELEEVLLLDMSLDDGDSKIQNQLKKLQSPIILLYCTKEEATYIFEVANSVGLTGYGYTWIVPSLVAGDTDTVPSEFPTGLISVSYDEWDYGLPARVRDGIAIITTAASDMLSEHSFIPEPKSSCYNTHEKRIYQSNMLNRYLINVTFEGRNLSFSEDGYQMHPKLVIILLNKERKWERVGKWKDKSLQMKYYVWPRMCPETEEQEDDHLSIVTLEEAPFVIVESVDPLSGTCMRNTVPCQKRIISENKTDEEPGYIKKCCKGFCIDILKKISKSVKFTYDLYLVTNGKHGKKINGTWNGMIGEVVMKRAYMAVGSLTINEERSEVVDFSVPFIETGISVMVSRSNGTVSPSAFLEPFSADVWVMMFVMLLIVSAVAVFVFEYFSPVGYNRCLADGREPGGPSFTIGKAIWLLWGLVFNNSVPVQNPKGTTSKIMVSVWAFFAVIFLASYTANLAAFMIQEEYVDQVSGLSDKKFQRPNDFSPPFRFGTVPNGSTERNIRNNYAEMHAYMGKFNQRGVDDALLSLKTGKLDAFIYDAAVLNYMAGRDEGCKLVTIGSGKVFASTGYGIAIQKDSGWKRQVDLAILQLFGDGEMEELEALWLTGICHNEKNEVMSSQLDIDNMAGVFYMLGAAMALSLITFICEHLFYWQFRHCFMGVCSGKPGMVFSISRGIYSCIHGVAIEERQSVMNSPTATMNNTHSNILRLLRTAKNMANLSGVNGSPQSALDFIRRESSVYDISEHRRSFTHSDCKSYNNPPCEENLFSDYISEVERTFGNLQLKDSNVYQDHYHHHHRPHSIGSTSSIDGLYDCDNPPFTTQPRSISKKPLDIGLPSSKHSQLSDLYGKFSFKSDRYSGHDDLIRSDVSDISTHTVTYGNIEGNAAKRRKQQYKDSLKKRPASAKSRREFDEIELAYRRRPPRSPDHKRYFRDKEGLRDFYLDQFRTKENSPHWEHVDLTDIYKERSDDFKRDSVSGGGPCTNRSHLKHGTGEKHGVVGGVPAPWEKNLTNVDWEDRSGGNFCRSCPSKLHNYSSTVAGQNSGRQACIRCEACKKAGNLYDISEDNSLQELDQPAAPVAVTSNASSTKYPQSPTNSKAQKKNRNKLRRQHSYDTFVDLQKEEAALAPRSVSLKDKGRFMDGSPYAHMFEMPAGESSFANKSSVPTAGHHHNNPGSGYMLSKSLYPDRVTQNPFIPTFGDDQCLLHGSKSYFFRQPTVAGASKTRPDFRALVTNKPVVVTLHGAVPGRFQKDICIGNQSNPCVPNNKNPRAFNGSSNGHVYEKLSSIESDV
NR1/NR2C (NR1100), sequence (Q00961 20-1237, other chains not shown): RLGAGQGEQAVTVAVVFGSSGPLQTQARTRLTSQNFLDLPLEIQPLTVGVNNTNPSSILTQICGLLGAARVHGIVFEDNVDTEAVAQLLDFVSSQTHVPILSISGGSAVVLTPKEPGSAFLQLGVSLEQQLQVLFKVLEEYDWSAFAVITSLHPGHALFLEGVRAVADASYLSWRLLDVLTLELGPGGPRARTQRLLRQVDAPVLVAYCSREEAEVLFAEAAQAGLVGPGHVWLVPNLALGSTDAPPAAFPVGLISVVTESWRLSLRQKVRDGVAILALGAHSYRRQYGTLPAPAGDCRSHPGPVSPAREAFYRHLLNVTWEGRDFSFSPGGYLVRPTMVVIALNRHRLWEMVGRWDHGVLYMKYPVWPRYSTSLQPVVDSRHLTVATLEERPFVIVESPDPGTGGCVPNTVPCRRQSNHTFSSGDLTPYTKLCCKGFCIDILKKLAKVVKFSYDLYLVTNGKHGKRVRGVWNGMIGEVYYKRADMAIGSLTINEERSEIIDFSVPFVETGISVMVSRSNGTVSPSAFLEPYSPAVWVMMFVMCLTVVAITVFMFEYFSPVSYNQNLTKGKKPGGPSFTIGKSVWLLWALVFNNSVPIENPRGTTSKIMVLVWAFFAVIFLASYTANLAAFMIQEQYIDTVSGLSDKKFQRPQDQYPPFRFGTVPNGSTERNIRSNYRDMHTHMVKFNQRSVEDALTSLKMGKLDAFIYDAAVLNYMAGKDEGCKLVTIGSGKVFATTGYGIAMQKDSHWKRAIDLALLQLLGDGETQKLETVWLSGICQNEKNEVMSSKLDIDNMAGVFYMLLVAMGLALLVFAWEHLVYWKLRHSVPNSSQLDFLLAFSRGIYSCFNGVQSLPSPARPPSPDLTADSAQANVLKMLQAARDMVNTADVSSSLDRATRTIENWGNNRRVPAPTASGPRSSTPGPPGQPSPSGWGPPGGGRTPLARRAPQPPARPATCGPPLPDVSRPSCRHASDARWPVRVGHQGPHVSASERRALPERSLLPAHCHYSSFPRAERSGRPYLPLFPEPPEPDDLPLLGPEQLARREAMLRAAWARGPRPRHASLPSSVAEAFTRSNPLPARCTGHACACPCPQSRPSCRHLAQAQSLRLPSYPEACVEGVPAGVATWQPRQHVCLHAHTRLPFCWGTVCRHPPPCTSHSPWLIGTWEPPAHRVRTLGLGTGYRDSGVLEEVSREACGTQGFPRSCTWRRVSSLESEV

Br.COc1ccc(-c2ccc(=N)n(CCCC(=O)O)n2)cc1 [SR-95531]
effect on NMDA-induced neuronal death [1]: no effect

C[C@]12CC[C@@H]3c4ccc(OS(=O)(=O)O)cc4CC[C@H]3[C@@H]1CC[C@@H]2O [17β-Estradiol-3-sulfate]
inhibition of the response to kainate (GluR3 AMPA receptor): no effect
Percentage change in kainate response (GluR3 AMPA receptor): −8 ± 4(3) %
inhibition of the response to kainate (GluR1 AMPA receptor): no effect
Percentage change in kainate response (GluR1 AMPA receptor): −2 ± 2(3) %
Percentage change in NMDA response [2]: +12 ± 3(4) %
inhibition of the response to kainate (GluR6 kainate receptor): 12%
Percentage change in kainate response (GluR6 kainate receptor): −13 ± 4(4) %

N[C@@H](CCC(=O)O)C(=O)O [L-glutamate]
agonist Emax (NR1/NR2B (NR1100); +100 μM PS): 1.34 ± 0.07
agonist Emax (NR1/NR2B (NR1100); no PS): 1.23 ± 0.04
agonist nH (NR1/NR2B (NR1100); no PS): 1.14 ± 0.10
agonist Emax (NR1101/NR2A; absence of PS): 1.77 ± 0.09
agonist Emax (NR1101/NR2A; presence of PS): 2.72 ± 0.07
agonist Emax (NR1/NR2A (NR1100); +100 μM PS): 2.3 ± 0.2
agonist nH (NR1/NR2A (NR1100); +100 μM PS): 0.98 ± 0.06
agonist nH (NR1/NR2A (NR1100); no PS): 1.15 ± 0.04
agonist Emax (NR1/NR2A (NR1100); no PS, normalized to 200 μM NMDA plus 10 μM glycine): 1.50
agonist Emax (NR1011/NR2A; absence of PS): 1.59 ± 0.03
agonist Emax (NR1011/NR2A; presence of PS): 2.08 ± 0.21
agonist Emax (NR1000/NR2A; absence of PS): 1.75 ± 0.02
agonist Emax (NR1000/NR2A; presence of PS): 2.92 ± 0.03
agonist Emax (NR1010/NR2A; absence of PS): 1.48 ± 0.03
agonist nHill (NR1010/NR2A; absence of PS): 1.32 ± 0.14
agonist nHill (NR1010/NR2A; presence of PS): 1.59 ± 0.15
agonist Emax (NR1/NR2C (NR1100); +100 μM PS): 0.87
agonist Emax (NR1/NR2C (NR1100); no PS): 1.31 ± 0.02
EC50 (NR1/NR2C (NR1100); +100 μM PS): 60 nM
EC50 (NR1/NR2C (NR1100); no PS): 75 nM
agonist Emax (NR1001/NR2A; absence of PS): 2.10 ± 0.12
agonist nHill (NR1001/NR2A; presence of 100 mM PS): 1.57 ± 0.18
agonist Emax (NR1001/NR2A; presence of PS): 2.85 ± .26
agonist Emax (NR1100/NR2A; absence of PS): 1.50 ± 0.04
agonist nHill (NR1100/NR2A; absence of PS): 1.15 ± 0.04
agonist Emax (NR1100/NR2A; presence): 2.30 ± 0.21
agonist nHill (NR1100/NR2A; presence): 0.98 ± 0.06
agonist Emax (NR1111/NR2A; absence of PS): 1.87 ± 0.12
agonist nHill (NR1111/NR2A; absence of PS): 1.39 ± 0.02
agonist Emax (NR1111/NR2A; presence of PS): 2.62 ± 0.27
agonist Emax (NR1/NR2D (NR1100); +100 μM PS): 0.80
agonist Emax (NR1/NR2D (NR1100); no PS): 1.10 ± 0.03
EC50 (NR1/NR2D (NR1100); read-out: agonist EC50, +100 μM PS): 37 nM
EC50 (NR1/NR2D (NR1100); read-out: agonist EC50, no PS): 25 nM

Dehydroepiandrosterone sulfate
Percentage change in kainate response (GluR3 AMPA receptor): −7 ± 1(4) %
Percentage change in kainate response (GluR1 AMPA receptor): −23 ± 3(3) %
Percentage change in NMDA response [2]: +8 ± 13(3) %
Percentage change in kainate response (GluR6 kainate receptor): −17 ± 5(3) %
